Experiments:
[1] = molecular target: Cathepsin S (Homo sapiens, UniProt P25774); test: (§1) Enzyme Assay: Recombinant human cathepsins (CatS, CatK, CatL) were purchased from a Enzo Life Sciences. All assays were carried out in 96-well format using a buffer of 50 mM KH2PO4, 50 mM NaCl, 2 mM EDTA, 0.5 mM DTT and 1% Triton-X-100, pH 6.5 for Cathepsin S and a buffer of 50 mM NaOAc, 10 mM EDTA, 1 mM DTT and 0.01% Triton-X-100, pH 5.5 for CatK/L/B. For CatS, the enzyme (0.0007 mU/well) was incubated with fluorogeninc substrate (Z-VVR-AMC, 5 μM) at RT for 10 min. For CatK the enzyme (0.00175 mU/well) was incubated with fluorogeninc substrate (Z-FR-AMC, 40 μM) at RT for 10 min. For CatL, the enzyme (0.000874 mU/well) was incubated with fluorogeninc substrate (Z-VVR-AMC, 40 μM) at RT for 10 min. Flourogenic substrate turnover was detected using a microplate reader (Synergy H4, BioTek). Ki values were calculated using the Cheng Prusoff equation (Cheng & Prosoff 1973).
[2] = molecular target: T1, Cathepsin K (Homo sapiens, UniProt P43235); test: as §1
T1 sequence (P43235 whole entry): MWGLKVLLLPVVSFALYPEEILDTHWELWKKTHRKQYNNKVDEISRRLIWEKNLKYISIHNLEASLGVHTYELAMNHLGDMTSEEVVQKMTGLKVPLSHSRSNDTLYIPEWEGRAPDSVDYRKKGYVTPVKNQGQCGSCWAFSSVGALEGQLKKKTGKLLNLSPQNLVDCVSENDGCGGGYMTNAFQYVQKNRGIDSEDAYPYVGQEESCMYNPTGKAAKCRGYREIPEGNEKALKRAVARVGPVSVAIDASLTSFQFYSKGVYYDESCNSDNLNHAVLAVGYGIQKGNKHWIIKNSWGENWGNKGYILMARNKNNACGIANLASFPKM

Cathepsin S, sequence (P25774 whole entry): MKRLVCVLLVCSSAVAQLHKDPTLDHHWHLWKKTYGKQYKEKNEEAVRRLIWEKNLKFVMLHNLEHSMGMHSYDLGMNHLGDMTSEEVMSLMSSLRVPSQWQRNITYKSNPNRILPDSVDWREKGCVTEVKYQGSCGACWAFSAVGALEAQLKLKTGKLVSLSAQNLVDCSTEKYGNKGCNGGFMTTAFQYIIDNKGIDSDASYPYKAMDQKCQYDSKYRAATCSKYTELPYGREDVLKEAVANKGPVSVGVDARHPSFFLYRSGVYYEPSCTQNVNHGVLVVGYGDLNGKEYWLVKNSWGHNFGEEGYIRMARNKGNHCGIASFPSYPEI

Row | Compound | Ki [1] [nM] | Ki [2] [nM]
1 | O=C(N[C@H](C(=O)N1C[C@H](Cl)[C@H]2OCC(=O)[C@H]21)C1CCCCC1)c1ccc(-c2ccncn2)o1 | 699 | 262
2 | O=C(N[C@H](C(=O)N1C[C@H](Cl)[C@H]2OCC(=O)[C@H]21)C1CCCCC1)c1cnc(-c2ccnnc2)o1 | 527 | 278
3 | Cc1nccc(-c2ccc(C(=O)N[C@H](C(=O)N3C[C@H](Cl)[C@H]4OCC(=O)[C@H]43)C3CCCCC3)s2)n1 | 238 | 9
4 | COc1ccc(-c2ccc(C(=O)N[C@H](C(=O)N3C[C@H](Cl)[C@H]4OCC(=O)[C@H]43)C3CCCCC3)s2)nn1 | 344 | 16
5 | O=C(N[C@H](C(=O)N1C[C@H](Cl)[C@H]2OCC(=O)[C@H]21)C1CCCCC1)c1ccc(-c2cccnc2)o1 | 612 | 54
6 | O=C(N[C@H](C(=O)N1C[C@H](Cl)[C@H]2OCC(=O)[C@H]21)C1CCCCC1)c1nnc(-c2ccncc2)s1 |  | 14
